Laboratory results from patent US6444850B1, “Fungicidial compounds having a fluorovinyloxphyenyl moiety and process for the preparation thereof” (priority 1997, dated 2002).

Experiments:
[1] = tested on: Pyricularia oryzae Carvara KA301; type: in vivo; conditions: for C. V. (%) Fungicidal Activities against RCB at 10 ppm / C. V. (%) Fungicidal Activities against RCB at 10 ppm (TABLE 6): sprayed on Nakdong rice plant, control value from lesion area; for C. V. (%) RCB: 50 ppm, control value, rice blast
[2] = tested on: Botrytis cinerae; assay: Fungicidal activity against cucumber gray mold rot (CGM) disease; type: in vivo; conditions: 50 ppm, control value
[3] = tested on: Phytophthora infestans; type: in vivo; conditions: 50 ppm; control value, tomato late blight
[4] = tested on: Puccinia recondita; assay: Fungicidal activity against wheat leaf rust (WLR) disease; type: in vivo; conditions: for C. V. (%), Fungicidal Activities against WLB at 10 ppm: Table 8 (Test Example 5); for C. V. (%) WLR: 50 ppm, control value, wheat leaf rust
[5] = tested on: Erysiphae graminis; assay: Fungicidal activity against barley powdery mildew (BPM) disease; type: in vivo; conditions: for C. V. (%), Fungicidal activities against TLB at 10 ppm: Table 9 (Test Example 6); for C. V. (%) BPM: 50 ppm, control value, barley powdery mildew
[6] = tested on: Rhizoctonia solani AG-1; assay: Fungicidal activity against rice sheath blight (RSB) disease; conditions: 50 ppm, control value

Row | SMILES | C. V. (%) Fungicidal Activities against RCB at 10 ppm [1] | C. V. (%) Fungicidal Activities against RCB at 10 ppm (TABLE 6) [1] | C. V. (%) RCB [1] | C. V. (%) CGM [2] | C. V. (%) TLB [3] | C. V. (%), Fungicidal Activities against WLB at 10 ppm [4] | C. V. (%) WLR [4] | C. V. (%), Fungicidal activities against TLB at 10 ppm [5] | C. V. (%) BPM [5] | C. V. (%) RSB [6]
1 | CCc1ccc(C(=C(F)Oc2cccc(OCc3ccccc3C(=NOC)C(=O)NC)c2)C(F)(F)F)cc1 [Compound 61] | 96% | 96% | 100% | 5% | 64% | 100% | 100% | 100% | 100% | 50%
2 | CCCCc1ccc(C(=C(F)Oc2cccc(OCc3ccccc3C(=COC)C(=O)OC)c2)C(F)(F)F)cc1 [Compound 62] | – | – | 0% | 28% | 3% | – | 93% | – | 98% | 35%
3 | COC=C(C(=O)OC)c1ccccc1COc1cccc(OC(F)=C(c2ccc(C)c(C)c2)C(F)(F)F)c1 [Compound 63] | – | – | 75% | 25% | 25% | – | 100% | 100% | 100% | 40%
4 | CNC(=O)/C(=C/OC)c1ccccc1COc1cccc(OC(F)=C(c2ccc(C)c(C)c2)C(F)(F)F)c1 [Compound 64] | – | – | 16% | 0% | 22% | – | 0% | – | 0% | 0%
5 | CO/N=C(/C(=O)OC)c1ccccc1COc1cccc(OC(F)=C(c2ccc(C)c(C)c2)C(F)(F)F)c1 [Compound 65] | – | – | 91% | 16% | 33% | 100% | 99% | 94% | 99% | 90%
6 | CNC(=O)/C(=N/OC)c1ccccc1COc1cccc(OC(F)=C(c2ccc(C)c(C)c2)C(F)(F)F)c1 [Compound 66] | 100% | 100% | 98% | 0% | 18% | 100% | 100% | 100% | 100% | 40%
7 | CO/C=C(/C(=O)OC)c1ccccc1COc1cccc(OC(F)=C(c2cc(C)cc(C)c2)C(F)(F)F)c1 [Compound 67] | – | – | 80% | 16% | 25% | – | 100% | 100% | 100% | 50%
8 | CNC(=O)/C(=C/OC)c1ccccc1COc1cccc(OC(F)=C(c2cc(C)cc(C)c2)C(F)(F)F)c1 [Compound 68] | – | – | 0% | 0% | 22% | – | 56% | – | 0% | 0%
9 | CNC(=O)/C(=N/OC)c1ccccc1COc1cccc(OC(F)=C(c2cc(C)cc(C)c2)C(F)(F)F)c1 [Compound 70] | 100% | 100% | 100% | 0% | 0% | 100% | 100% | 100% | 100% | 0%
10 | COC=C(C(=O)OC)c1ccccc1COc1cccc(OC(F)=C(c2cccc(OC)c2)C(F)(F)F)c1 [Compound 71] | – | – | 90% | 41% | 62% | 95% | 100% | 100% | 100% | 40%
11 | CNC(=O)C(=COC)c1ccccc1COc1cccc(OC(F)=C(c2cccc(OC)c2)C(F)(F)F)c1 [Compound 72] | – | – | 0% | 0% | 33% | – | 0% | – | 0% | 33%
12 | CON=C(C(=O)OC)c1ccccc1COc1cccc(OC(F)=C(c2cccc(OC)c2)C(F)(F)F)c1 [Compound 73] | – | – | 93% | 9% | 60% | 96% | 98% | 88% | 93% | 92%
13 | CNC(=O)C(=NOC)c1ccccc1COc1cccc(OC(F)=C(c2cccc(OC)c2)C(F)(F)F)c1 [Compound 74] | 93% | 93% | 100% | 52% | 64% | 100% | 100% | 100% | 100% | 70%
14 | CNC(=O)C(=COC)c1ccccc1COc1cccc(OC(F)=C(c2ccc(OC)cc2)C(F)(F)F)c1 [Compound 75] | – | – | 0% | 0% | 33% | – | 0% | – | 0% | 40%
15 | CON=C(C(=O)OC)c1ccccc1COc1cccc(OC(F)=C(c2ccc(OC)cc2)C(F)(F)F)c1 [Compound 76] | – | – | 63% | 0% | 44% | 99% | 96% | 96% | 99% | 90%
16 | CNC(=O)C(=NOC)c1ccccc1COc1cccc(OC(F)=C(c2ccc(OC)cc2)C(F)(F)F)c1 [Compound 77] | 96% | 96% | 99% | 11% | 82% | 100% | 100% | 100% | 100% | 60%
17 | CCOc1ccc(C(=C(F)Oc2cccc(OCc3ccccc3C(=COC)C(=O)OC)c2)C(F)(F)F)cc1 [Compound 78] | – | – | 0% | 0% | 0% | 97% | 98% | 100% | 100% | 40%
18 | CCOc1ccc(C(=C(F)Oc2cccc(OCc3ccccc3C(=NOC)C(=O)OC)c2)C(F)(F)F)cc1 [Compound 79] | – | – | 0% | 7% | 18% | 96% | 100% | 99% | 100% | 55%
19 | CCOc1ccc(C(=C(F)Oc2cccc(OCc3ccccc3C(=NOC)C(=O)NC)c2)C(F)(F)F)cc1 [Compound 80] | 95% | 95% | 100% | 0% | 0% | 100% | 100% | 100% | 100% | 0%
